Patent publication US10010539B2, “Pyrazole, triazole and tetrazole orexin receptor antagonists” (MERCK SHARP & DOHME CORP., priority 2014, dated 2018)

Tests used:
[1] = biological target: hOXIR (orexin-1 receptor) (Homo sapiens, UniProt O43613); assay: FLIPR Ca2+ Flux Assay, orexin-1 receptor (hOXIR FLIPR); assay type: cell-based; details: CHO cells expressing the orexin-1 receptor (method text: rat; table head: hOXIR); agonist 70 pM Ala-6,12 human orexin-A
Outline: (§1)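 Fluorescence peaks, recorded at 1 s intervals for 5 min, were normalised to the response to 70 pM Ala-6,12 orexin-A alone and converted to IC50 values. Cells were CHO lines carrying rat orexin-1 or human orexin-2 receptor, Fluo-4AM loaded and exposed to compound for 5 min first.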

human orexin-2 receptor = human orexin-2 receptor (Homo sapiens (Human), UniProt O43614); assay: FLIPR Ca2+ Flux Assay, orexin-2 receptor (hOX2R FLIPR); assay type: cell-based; details: CHO cells expressing the human orexin-2 receptor; agonist 70 pM Ala-6,12 human orexin-A
Outline: as §1

Chain of human orexin-2 receptor (O43614 whole entry): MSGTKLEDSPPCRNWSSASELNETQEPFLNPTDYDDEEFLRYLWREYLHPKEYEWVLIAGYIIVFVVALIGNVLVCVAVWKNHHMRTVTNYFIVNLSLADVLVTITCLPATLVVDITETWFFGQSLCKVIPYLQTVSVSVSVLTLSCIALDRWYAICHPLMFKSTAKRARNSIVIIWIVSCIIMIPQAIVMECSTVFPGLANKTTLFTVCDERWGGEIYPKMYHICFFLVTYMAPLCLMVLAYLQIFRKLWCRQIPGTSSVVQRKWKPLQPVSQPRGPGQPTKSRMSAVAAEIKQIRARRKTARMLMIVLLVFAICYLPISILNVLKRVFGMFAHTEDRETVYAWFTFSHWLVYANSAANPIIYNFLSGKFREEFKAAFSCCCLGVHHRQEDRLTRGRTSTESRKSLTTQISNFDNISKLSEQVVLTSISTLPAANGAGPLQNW

Row | Compound | IC50 [1] [µM] | IC50 (human orexin-2 receptor) [µM]
1 | C[C@@H]1CC[C@@H](n2ncc(-c3ccccc3)n2)CN1C(=O)c1ccccc1-n1nccn1 [Example 28, (2-(2H-1,2,3-triazol-2-yl)phenyl)((2R,5R)-2-methyl-5-(4-phenyl-2H-1,2,3-triazol-2-yl)piperidin-1-yl)methanone] | 0.054 | 0.0697
2 | C[C@@H]1CC[C@@H](n2ncc(C(C)(C)O)n2)CN1C(=O)c1ccccc1-c1ccccc1 [Example 2, [1,1′-Biphenyl]-2-yl((2R,5R)-5-(4-(2-hydroxypropan-2-yl)-2H-1,2,3-triazol-2-yl)-2-methylpiperidin-1-yl)methanone] | 0.483 | 0.0162
3 | CCOc1ccccc1C(=O)N1C[C@H](n2nc(C)c(C(C)(C)O)n2)CC[C@H]1C [Example 69, 2-(2-{(3R,6R)-1-[(2-Ethoxyphenyl)carbonyl]-6-methylpiperidin-3-yl}-5-methyl-2H-1,2,3-triazol-4-yl)propan-2-ol] | 1.95 | 0.0079
4 | Cc1nn([C@@H]2CC[C@@H](C)N(C(=O)c3ccc(F)cc3-n3nccn3)C2)nc1C(C)(C)O [Example 72, 2-{2-[(3R,6R)-1-{[4-Fluoro-2-(2H-1,2,3-triazol-2-yl)phenyl]carbonyl}-6-methylpiperidin-3-yl]-5-methyl-2H-1,2,3-triazol-4-yl}propan-2-ol] | 1.29 | 0.0152
5 | C[C@@H]1CC[C@@H](n2ncc(C(C)(C)O)n2)CN1C(=O)c1ccccc1-n1nccn1 [Example 25, (2-(2H-1,2,3-triazol-2-yl)phenyl)((2R,5R)-5-(4-(2-hydroxypropan-2-yl)-2H-1,2,3-triazol-2-yl)-2-methylpiperidin-1-yl)methanone] | 0.594 | 0.0075
6 | CC(C)Oc1ncccc1C(=O)N1C[C@H](n2cc(C(C)(C)O)cn2)CC[C@H]1C [Example 97, 2-{1-[(3R,6R)-6-Methyl-1-{[2-(1-methylethoxy)pyridin-3-yl]carbonyl}piperidin-3-yl]-1H-pyrazol-4-yl}propan-2-ol] | > 10 | 0.24
7 | C[C@@H]1CC[C@@H](n2ncc(C(C)(C)O)n2)CN1C(=O)c1ccccc1[C@H]1CC1(F)F [Example 23, 2-{2-[(3R,6R)-1-({2-[(1R)-2,2-difluorocyclopropyl]phenyl}carbonyl)-6-methylpiperidin-3-yl]-2H-1,2,3-triazol-4-yl}propan-2-ol] | > 10 | 0.0469
8 | COc1ccc(C(=O)N2C[C@H](n3cc(C(C)(C)O)cn3)CC[C@H]2C)c(C2CC2)n1 [Example 96, 2-(1-{(3R,6R)-1-[(2-Cyclopropyl-6-methoxypyridin-3-yl)carbonyl]-6-methylpiperidin-3-yl}-1H-pyrazol-4-yl)propan-2-ol] | > 10 | 1.6
9 | Cc1nc(-c2cc(F)ccc2C(=O)N2C[C@H](n3ncc(C(C)(C)O)n3)CC[C@H]2C)no1 [Example 40, 2-{2-[(3R,6R)-1-{[4-fluoro-2-(5-methyl-1,2,4-oxadiazol-3-yl)phenyl]carbonyl}-6-methylpiperidin-3-yl]-2H-1,2,3-triazol-4-yl}propan-2-ol] | > 10 | 0.0867
10 | C[C@@H]1CC[C@@H](n2ncc(C(C)(C)O)n2)CN1C(=O)c1ccccc1OCC(F)F [Example 18, (2-(2,2-Difluoroethoxy)phenyl)((2R,5R)-5-(4-(2-hydroxypropan-2-yl)-2H-1,2,3-triazol-2-yl)-2-methylpiperidin-1-yl)methanone] | > 10 | 0.015
11 | C[C@@H]1CC[C@@H](n2ncc(C(C)(C)O)n2)CN1C(=O)c1cccnc1OC(F)F [Example 7, (2-(Difluoromethoxy)pyridin-3-yl)((2R,5R)-5-(4-(2-hydroxypropan-2-yl)-2H-1,2,3-triazol-2-yl)-2-methylpiperidin-1-yl)methanone] | > 10 | 0.0517
12 | COc1ccc(C(=O)N2C[C@H](n3ncc(C(C)(C)O)n3)CC[C@H]2C)c(-n2nccn2)c1 [Example 54, 2-{2-[(3R,6R)-1-{[4-methoxy-2-(2H-1,2,3-triazol-2-yl)phenyl]carbonyl}-6-methylpiperidin-3-yl]-2H-1,2,3-triazol-4-yl}propan-2-ol] | > 10 | 0.0533
13 | C[C@@H]1CC[C@@H](n2ncc(C(C)(C)O)n2)CN1C(=O)c1ccccc1OCC(F)(F)F [Example 16, ((2R,5R)-5-(4-(2-Hydroxypropan-2-yl)-2H-1,2,3-triazol-2-yl)-2-methylpiperidin-1-yl)(2-(2,2,2-trifluoroethoxy)phenyl)methanone] | > 10 | 0.0228
14 | C[C@@H]1CC[C@@H](n2ncc(C(C)(C)O)n2)CN1C(=O)c1nccnc1-c1ccccn1 [Example 42, 2-(2-{(3R,6R)-6-methyl-1-[(3-pyridin-2-ylpyrazin-2-yl)carbonyl]piperidin-3-yl}-2H-1,2,3-triazol-4-yl)propan-2-ol] | > 10 | 0.622
15 | C[C@@H]1CC[C@@H](n2cc(C(C)(C)O)cn2)CN1C(=O)c1ccccc1OCC(F)(F)F [Example 80, 2-{1-[(3R,6R)-6-Methy-1-{[2-(2,2,2-trifluoroethoxy)phenyl]carbonyl}piperidin-3-yl]-1H-pyrazol-4-yl}propan-2-ol] | > 10 | 0.165
16 | C[C@@H]1CC[C@@H](n2cc(C(C)(C)O)cn2)CN1C(=O)c1ccccc1CC(F)F [Example 99, 2-{1-[(3R,6R)-1-{[2-(2,2-Difluoroethyl)phenyl]carbonyl}-6-methylpiperidin-3-yl]-1H-pyrazol-4-yl}propan-2-ol] | > 10 | 0.0384
17 | C[C@@H]1CC[C@@H](n2ncc(C(C)(C)O)n2)CN1C(=O)c1ccsc1-n1nccn1 [Example 33, 2-{2-[(3R,6R)-6-methyl-1-{[2-(2H-1,2,3-triazol-2-yl)thiophen-3-yl]carbonyl}piperidin-3-yl]-2H-1,2,3-triazol-4-yl}propan-2-ol] | 2.56 | 0.0184
18 | C[C@@H]1CC[C@@H](n2ncc(C(C)(C)O)n2)CN1C(=O)c1cccnc1C1CC1 [Example 60, 2-(2-{(3R,6R)-1-[(2-Cyclopropylpyridin-3-yl)carbonyl]-6-methylpiperidin-3-yl}-2H-1,2,3-triazol-4-yl)propan-2-ol] | > 10 | 0.609
19 | Cc1nn([C@@H]2CC[C@@H](C)N(C(=O)c3cccnc3OCC(F)F)C2)nc1C(C)(C)O [Example 64, 2-{2-[(3R,6R)-1-{[2-(2,2-Difluoroethoxy)pyridin-3-yl]carbonyl}-6-methylpiperidin-3-yl]-5-methyl-2H-1,2,3-triazol-4-yl}propan-2-ol] | 2.99 | 0.0088
20 | C[C@@H]1CC[C@@H](n2ncc([C@@H](O)C(F)(F)F)n2)CN1C(=O)c1ccccc1-n1nccn1 [Example 27, (2-(2H-1,2,3-triazol-2-yl)phenyl)((2R,5R)-2-methyl-5-(4-((R)-2,2,2-trifluoro-1-hydroxyethyl)-2H-1,2,3-triazol-2-yl)piperidin-1-yl)methanone] | 0.505 | 0.0179
21 | C[C@@H]1CC[C@@H](n2nnc(C(C)(C)O)n2)CN1C(=O)c1ccccc1-n1nccn1 [Example 74, 2-{2-[(3R,6R)-6-Methyl-1-{[2-(2H-1,2,3-triazol-2-yl)phenyl]carbonyl}piperidin-3-yl]-2H-tetrazol-5-yl}propan-2-ol] | > 10 | 0.0449
